Measurements as given in US7763662B2, “Use of C2-substituted indan-1-ol systems for preparing medicaments for the prophylaxis or treatment of obesity” (Sanofi-Aventis Deutschland GmbH, priority 2001, dated 2010).

What was measured:
female NMRI mice = assay: Anorectic action: cumulative evaporated milk consumption after 24 h feed removal; type: in vivo; conditions: ip or po (route not specified), N=5; for Reduction in cumulative milk consumption as % of the control: compared with vehicle-treated control animals; for cumulative milk consumption by treated animals: milk offered 30 min after administration, monitored for 7 hours
Method: The activity of the compounds was assayed as follows:
The anorectic action was tested on female NMRI mice. After removal of feed for 24 hours, the preparation to be tested was administered intraperitoneally (ip) or by gavage (po). The animals were housed singly and, with free access to drinking water, they were offered evaporated milk 30 minutes after administration of the preparation. The consumption of evaporated milk was determined and the general behavior of the animals was monitored every half an hour for 7 hours. The measured milk consumption was compared to that of vehicle-treated control animals.

Compound | Reduction in cumulative milk consumption as % of the control (female NMRI mice; dose 20 mg/kg) | cumulative milk consumption by treated animals (female NMRI mice; dose 20 mg/kg) | melting point | Reduction in cumulative milk consumption as % of the control (female NMRI mice; dose 50 mg/kg) | cumulative milk consumption by treated animals (female NMRI mice; dose 50 mg/kg)
CS(=O)(=O)C1Cc2cc(Cl)ccc2C1O (stereo not shown) [Example 1, 5-Chloro-2-methylsulfonylindan-1-ol] | 50 % of the control | 5/1.94 ml | 163 °C |  | 
CSC1Cc2cc(Cl)ccc2C1O (stereo not shown) [Example 4, 5-Chloro-2-methylsulfanylindan-1-ol] |  |  |  | 85 % of the control | 5/0.70 ml
CCS(=O)(=O)C1Cc2cc(Cl)ccc2C1O (stereo not shown) [Example 3, 5-Chloro-2-ethanesulfonylindan-1-ol] |  |  | 145 °C |  | 
CSC1Cc2cc(Cl)ccc2C1O (stereo not shown) (hydrate or solvate) [Example 4, 5-Chloro-2-methylsulfanylindan-1-ol] |  |  | 197.1 °C |  | 
